Source: US8822407B2, “Preparation of conjugates comprising adenine derivatives and allergenic proteins and their use for specific immunotherapy of allengenic diseases” (Universita' Degli Studi di Firenze, priority 2010, dated 2014)

Tests used:
[1] = test system: purified CD14+ cells; test: Cytokine production by purified CD14+ cells (ELISA of supernatants, 36 hrs); format: cell-based, human; conditions: for IL-6 production / IL-10 production / IL-12p40 production / TNF-alfa production: Table A
Procedure: Circulating mononuclear cells (MNC) are isolated by density gradient (Ficoll-Hypaque) using buffy coats from 14 normal donors (Servizio Immunotrasfusionale e terapie cellulari, Azienda Ospedaliera Universitaria A. Meyer, Firenze). 200×10^6 MNC are separated by the use of a commercial kit (CD14 isolation kit, Miltenyi) by the addition of 400 μl anti-CD14 monoclonal antibody bound to iron beads followed by isolation on magnetic columns (LS column). 50×10^6 monocytes are recovered by positive selection and are extensively washed with calcium and magnesium-free sterile PBS and then seeded in complete medium plus 10% foetal calf serum in 24 flat bottomed plates at the concentration of 1×10^6/ml. […] The plates are incubated for 36 hrs at 37° C. in 5% CO2 humidified atmosphere and the supernatants are collected after centrifugation at 1200 rpm, aliquoted and then stored at −20° C. up to the assay. […]
(§1) For the determination of cytokines and chemokines of the innate immunity, commercial ELISAs have been used: IL-12p40 (Cytoscreen, Biosource Int, Camarillo, Calif.), IFN-alfa (Cytoscreen), TNF-alfa (Cytoscreen), IL-10 (Pharmingen), IL-6 and CXCL10 (R&D System). 100 μl/well of single supernatants are incubated in flat bottomed plates as specified by the productors and the amounts of the single cytokines are expressed as pg/ml on the basis of a reference curve by using recombinant cytokines.

[2] = test system: purified BDCA4+ cells; test: Cytokine production by purified BDCA4+ cells (plasmacytoid dendritic cells), ELISA; format: cell-based, human; conditions: for IFN-alfa production / IL-6 production / TNF-alfa production / IL-10 production: Table C
Procedure: The preparation of purified BDCA4+ cells has been obtained in a similar way starting from MNC of buffy coats of the same 14 healthy donors. […] By positive selection 5×10^6 plasmacytoid dendritic cells (PDCs) are recovered, extensively washed with calcium and magnesium-free sterile PBS and seeded in complete medium plus 10% foetal calf serum in 24-flat bottomed plates at the concentration 1×10^6/ml. […] The plates are incubated for 36 hrs at 37° C. in 5% CO2 humidified atmosphere and the supernatants are collected after centrifugation at 1200 rpm, aliquoted and then stored at −20° C. up to the assay. […]
as §1

[3] = biological target: T1, human TLR7 (Homo sapiens, UniProt Q9NYK1); test: TLR7 activation, NF-kB luciferase reporter in transfected HEK293 cells; format: cell-based; conditions: human TLR7-encoding plasmid
T1 construct: expressed in transfected cells; host or cells: HEK293 (transient Nucleofection, Amaxa)
T1 sequence (Q9NYK1 27-1049): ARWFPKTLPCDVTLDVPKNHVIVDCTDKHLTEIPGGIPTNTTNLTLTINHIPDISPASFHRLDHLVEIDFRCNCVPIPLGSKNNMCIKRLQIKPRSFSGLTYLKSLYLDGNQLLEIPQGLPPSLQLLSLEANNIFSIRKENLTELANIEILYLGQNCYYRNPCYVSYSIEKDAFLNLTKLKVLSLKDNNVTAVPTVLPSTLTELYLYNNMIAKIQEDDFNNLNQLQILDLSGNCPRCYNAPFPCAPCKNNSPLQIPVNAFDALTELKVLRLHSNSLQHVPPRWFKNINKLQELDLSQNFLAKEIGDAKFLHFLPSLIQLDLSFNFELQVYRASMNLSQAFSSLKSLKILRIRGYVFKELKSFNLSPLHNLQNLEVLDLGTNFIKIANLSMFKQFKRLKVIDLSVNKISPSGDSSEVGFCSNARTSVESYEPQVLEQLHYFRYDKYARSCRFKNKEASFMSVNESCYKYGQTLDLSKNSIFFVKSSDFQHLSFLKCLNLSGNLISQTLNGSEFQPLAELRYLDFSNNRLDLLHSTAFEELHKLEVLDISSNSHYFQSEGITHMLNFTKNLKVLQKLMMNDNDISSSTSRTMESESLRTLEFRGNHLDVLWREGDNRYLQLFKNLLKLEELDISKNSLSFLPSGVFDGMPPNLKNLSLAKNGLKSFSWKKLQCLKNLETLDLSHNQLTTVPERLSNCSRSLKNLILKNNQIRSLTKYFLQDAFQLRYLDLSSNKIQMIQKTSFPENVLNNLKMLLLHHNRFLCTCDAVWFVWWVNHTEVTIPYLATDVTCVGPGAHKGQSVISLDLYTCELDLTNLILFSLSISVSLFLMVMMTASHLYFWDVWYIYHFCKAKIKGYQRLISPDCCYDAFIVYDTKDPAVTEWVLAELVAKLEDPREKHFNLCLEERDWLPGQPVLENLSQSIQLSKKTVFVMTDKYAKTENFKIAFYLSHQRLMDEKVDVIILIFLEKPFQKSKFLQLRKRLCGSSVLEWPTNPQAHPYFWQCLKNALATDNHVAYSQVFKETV
Procedure: HEK293 cells are detached by trypsin from the plastic surface of the culture bottle, extensively washed with calcium and magnesium-free PBS, counted and adjusted at the concentration 1×10^6 cells/tube in polypropylene V-bottomed tubes. After the final wash, the cells are pelleted and 100 μl transfection buffer (Amaxa) is added together with […], TLR7, TLR8 or TLR9-encoding and ELAM-1 promoter NF-kB luciferase reporter plasmids. The mixture thus obtained is transferred in special cuvettes and transient transfection is obtained in a special apparatus which is able to directly introduce genetic material into the nucleus (Nucleofection®, Amaxa GmbH). The cells are then recovered and cultured at 1×10^5/ml in 48-flat bottomed plates in E-MEM medium plus 5% foetal calf serum for 18 hrs. […] Finally the luciferase activity is measured in the cellular lysates by a commercial kit (Promega).

- TLR7 activation (NF-κB luciferase) in transfected HEK293 cells [3]: completely inactive
Compound: Nc1nc(SCCCC(=O)ON2C(=O)CCC2=O)nc2c1nc(O)n2Cc1ccccc1 [SA-26E, 4-(6-Amino-9-benzyl-8-hydroxy-9H-purin-2-ylsulfanyl)-butyric acid 2,5-dioxo-pyrrolidin-1-yl ester]
- cytokine production from purified CD14+ cells (in words) ([1]; 0.085 μg/ml soluble SA-26E (amount present in Conj-5, -6, -7 and -8)): not able to stimulate the production of any cytokine
- IL-6 production ([1]; Donor #1, dose 0.085 μg/ml): 0 pg/mL
- IL-10 production ([1]; Donor #1, dose 0.085 μg/ml): 0 pg/mL
- IL-12p40 production ([1]; Donor #1, dose 0.085 μg/ml): 0 pg/mL
- TNF-alfa production ([1]; Donor #1, dose 0.085 μg/ml): 0 pg/mL
- IL-6 production ([1]; Donor #1, dose 0.6 μg/ml): 0 pg/mL
- IL-10 production ([1]; Donor #1, dose 0.6 μg/ml): 124 pg/mL
- IL-12p40 production ([1]; Donor #1, dose 0.6 μg/ml): 569 pg/mL
- TNF-alfa production ([1]; Donor #1, dose 0.6 μg/ml): 345 pg/mL
- IL-6 production ([1]; Donor #1, dose 2.5 μg/ml): 11 pg/mL
- IL-10 production ([1]; Donor #1, dose 2.5 μg/ml): 618 pg/mL
- IL-12p40 production ([1]; Donor #1, dose 2.5 μg/ml): 863 pg/mL
- IL-6 production ([1]; Donor #1, dose 10 μg/ml): 2930 pg/mL
- IL-10 production ([1]; Donor #1, dose 10 μg/ml): 609 pg/mL
- IL-12p40 production ([1]; Donor #1, dose 10 μg/ml): 2500 pg/mL
- TNF-alfa production ([1]; Donor #1, dose 10 μg/ml): 2123 pg/mL
- IL-6 production ([1]; Donor #2, dose 0.085 μg/ml): 0 pg/mL
- IL-10 production ([1]; Donor #2, dose 0.085 μg/ml): 0 pg/mL
- IL-12p40 production ([1]; Donor #2, dose 0.085 μg/ml): 0 pg/mL
- TNF-alfa production ([1]; Donor #2, dose 0.085 μg/ml): 0 pg/mL
- IL-6 production ([1]; Donor #2, dose 0.6 μg/ml): 0 pg/mL
- IL-10 production ([1]; Donor #2, dose 0.6 μg/ml): 0 pg/mL
- IL-12p40 production ([1]; Donor #2, dose 0.6 μg/ml): 785 pg/mL
- TNF-alfa production ([1]; Donor #2, dose 0.6 μg/ml): 466 pg/mL
- IL-6 production ([1]; Donor #2, dose 2.5 μg/ml): 4 pg/mL
- IL-12p40 production ([1]; Donor #2, dose 2.5 μg/ml): 2464 pg/mL
- TNF-alfa production ([1]; Donor #2, dose 2.5 μg/ml): 1267 pg/mL
- IL-6 production ([1]; Donor #2, dose 10 μg/ml): 163 pg/mL
- IL-10 production ([1]; Donor #2, dose 10 μg/ml): 584 pg/mL
- IL-12p40 production ([1]; Donor #2, dose 10 μg/ml): 4800 pg/mL
- TNF-alfa production ([1]; Donor #2, dose 10 μg/ml): 3730 pg/mL
- cytokine production from purified CD14+ cells (in words) ([1]; text to Tables A and B): intermediate effect
- cytokine production from BDCA4+ cells (in words) ([2]; 0.085 μg/ml concentration): completely inactive
- IFN-alfa production ([2]; Donor #1, dose 0.085 μg/ml): 0 pg/mL
- IL-6 production ([2]; Donor #1, dose 0.085 μg/ml): 0 pg/mL
- TNF-alfa production ([2]; Donor #1, dose 0.085 μg/ml): 0 pg/mL
- IFN-alfa production ([2]; Donor #1, dose 0.6 μg/ml): 179 pg/mL
- IL-6 production ([2]; Donor #1, dose 0.6 μg/ml): 0 pg/mL
- IL-10 production ([2]; Donor #1, dose 0.6 μg/ml): 0 pg/mL
- TNF-alfa production ([2]; Donor #1, dose 0.6 μg/ml): 183 pg/mL
- IFN-alfa production ([2]; Donor #1, dose 2.5 μg/ml): 179 pg/mL
- IL-6 production ([2]; Donor #1, dose 2.5 μg/ml): 0 pg/mL
- IL-10 production ([2]; Donor #1, dose 2.5 μg/ml): 0 pg/mL
- TNF-alfa production ([2]; Donor #1, dose 2.5 μg/ml): 252 pg/mL
- IFN-alfa production ([2]; Donor #1, dose 10 μg/ml): 486 pg/mL
- IL-6 production ([2]; Donor #1, dose 10 μg/ml): 675 pg/mL
- IL-10 production ([2]; Donor #1, dose 10 μg/ml): 896 pg/mL
- TNF-alfa production ([2]; Donor #1, dose 10 μg/ml): 858 pg/mL
- IFN-alfa production ([2]; Donor #2, dose 0.085 μg/ml): 0 pg/mL
- IL-6 production ([2]; Donor #2, dose 0.085 μg/ml): 0 pg/mL
- IL-10 production ([2]; Donor #2, dose 0.085 μg/ml): 0 pg/mL
- TNF-alfa production ([2]; Donor #2, dose 0.085 μg/ml): 0 pg/mL
- IFN-alfa production ([2]; Donor #2, dose 0.6 μg/ml): 669 pg/mL
- IL-6 production ([2]; Donor #2, dose 0.6 μg/ml): 0 pg/mL
- IL-10 production ([2]; Donor #2, dose 0.6 μg/ml): 0 pg/mL
- TNF-alfa production ([2]; Donor #2, dose 0.6 μg/ml): 520 pg/mL
- IFN-alfa production ([2]; Donor #2, dose 2.5 μg/ml): 2014 pg/mL
- IL-6 production ([2]; Donor #2, dose 2.5 μg/ml): 760 pg/mL
- TNF-alfa production ([2]; Donor #2, dose 2.5 μg/ml): 1157 pg/mL
- IFN-alfa production ([2]; Donor #2, dose 10 μg/ml): 3589 pg/mL
- IL-6 production ([2]; Donor #2, dose 10 μg/ml): 1439 pg/mL
- IL-10 production ([2]; Donor #2, dose 10 μg/ml): 750 pg/mL
- TNF-alfa production ([2]; Donor #2, dose 10 μg/ml): 3405 pg/mL
- cytokine production from BDCA4+ cells (in words) ([2]; text to Tables C and D): intermediate effect
